From patent US9156811B2 (priority 2008, dated 2015)

Tested on: Trypanosome (T. brucei brucei)
Experiment: In-vitro antitrypanosomal efficacy assay (cell growth, resazurin)
Assay type: cell-based
Details: T. brucei brucei, blood stream form, variant 221
Method: To column 12, 200 μl media was added to provide a no cells control. Plates were then incubated at 37° C. in an atmosphere of 5% CO2 for 69 hours, before the addition of 20 μl of 500 μM rezasurin solution, and a further incubation period of 4 hours. […] Concentration effect curves were fitted using non-linear regression using XLFit 4.2 and EC50 values determined.

| Compound | ED50 (μM) T. brucei [µM] |
| --- | --- |
| Cc1c(N[S+](=O)([O-])c2ccc(-c3ccc(OC(F)(F)F)c(CN(C)C)c3)cc2)c(CC(C)C)nn1C [DDD100140] | >1 |
| Cc1c(N[S+](=O)([O-])c2ccc(-c3cc(CN(C)C)ccc3Cl)cc2)c(CC(C)C)nn1C [DDD99826] | 0.104 |
| Cc1nn(C)c(C)c1N(C(F)F)[S+](=O)([O-])c1c(Cl)cc(Br)cc1Cl [DDD100805, 4-bromo-2,6-dichloro-N-(difluoromethyl)-N-(1,3,5-trimethyl-1H-pyrazol-4-yl)benzenesulfonamide] | >1 |

Same assay, conditions: T. brucei cell growth

| Compound | ED50 (μM) T. brucei [µM] |
| --- | --- |
| Cc1nn(C)c(C)c1N[S+](=O)([O-])c1ccc(-c2cccc(CN3CCNC(c4ccccc4)C3)c2)cc1 (centres unmarked) [DDD87754, 3′-(3-Phenyl-piperazin-1-ylmethyl)-biphenyl-4-sulfonic acid (1,3,5-trimethyl-1H-pyrazol-4-yl)-amide] | 1.6 |
| Cc1nn(C)c(C)c1N[S+](=O)([O-])c1ccc(CCCC2CCN(C)CC2)cc1 [DDD88559] | 0.038 |
| Cc1nn(C)c(C)c1N[S+](=O)([O-])c1c(Cl)cc(-c2ccnc(N3CCN(C)CC3)c2)cc1Cl [DDD86211, 2,6-Dichloro-4-[2-(4-methyl-piperazin-1-yl)-pyridin-4-yl]-N-(1,3,5-trimethyl-1H-pyrazol-4-yl)-benzenesulfonamide] | 0.19 |
| Cc1nn(C)c(C)c1N[S+](=O)([O-])c1ccc(-c2cccc(CNCCN(C)C)c2)cc1 [DDD86316, 3′-[(2-Dimethylamino-ethylamino)-methyl]biphenyl-4-sulfonic acid (1,3,5-trimethyl-1H-pyrazol-4-yl)-amide] | 5.0 |
| Cc1nn(C)c(C)c1N[S+](=O)([O-])c1ccc(-c2cccc(CN(C)C)c2)cc1 [DDD88005, 3′-Dimethylaminomethyl-biphenyl-4-sulfonic acid (1,3,5-trimethyl-1H-pyrazol-4-yl)-amide] | 0.1 |
| Cc1nn(C)c(C)c1N(CC(F)(F)F)[S+](=O)([O-])c1ccc(-c2ccnc(N3CCNCC3)c2)cc1 [DDD88645] | 0.021 |
| Cc1cc(CCCN2CCN(C)CC2)cc(C)c1[S+](=O)([O-])N(C)c1c(C)nn(C)c1C [DDD99818] | 0.047 |
| Cc1nn(C)c(C)c1N[S+](=O)([O-])c1ccc(CNC(=O)c2ccc(Cl)cc2)s1 [DDD73224] | >1 |
| Cc1nn(C)c(C)c1N[S+](=O)([O-])c1c(Cl)cc(-c2ccc(CN(C)Cc3ccccc3)cc2)cc1Cl [DDD85632] | >1 |
| Cc1nn(C)c(C)c1N[S+](=O)([O-])c1ccc(-c2cc(CN3CCN(C)CC3)cc(OC(C)C)c2)cc1 [DDD88194, 3′-Isopropoxy-5′-(4-methyl-piperazin-1-ylmethyl)-biphenyl-4-sulfonic acid (1,3,5-trimethyl-1H-pyrazol-4-yl)-amide] | 2.0 |
| Cc1nn(C)c(C)c1N[S+](=O)([O-])c1ccc(NCCN2CCN(C)CC2)nc1 [DDD85602, 6-[2-(4-Methyl-piperazin-1-yl)-ethylamino]-pyridine-3-sulfonic acid (1,3,5-trimethyl-1 H-pyrazol-4-yl)-amide] | 0.63 |
| CCN(c1c(C)nn(C)c1C)[S+](=O)([O-])c1c(Cl)cc(CCCN2CCN(C)CC2)cc1Cl [DDD90154] | 0.023 |
| CCN(c1c(C)nn(C)c1C)[S+](=O)([O-])c1c(Cl)cc(-c2ccnc(N3CCNCC3)c2)cc1Cl [DDD88646] | 0.002 |
| Cc1nn(C)c(C)c1N(C)[S+](=O)([O-])c1c(Cl)cc(CCCN2CC(C)NC(C)C2)cc1Cl (centres unmarked) [DDD99751] | 0.021 |
| Cc1nn(C)c(C)c1N(C)[S+](=O)([O-])c1c(Cl)cc(CCCN2CCCNCC2)cc1Cl [DDD99755] | 0.002 |
| CC#CCN(c1c(C)nn(C)c1C)[S+](=O)([O-])c1c(Cl)cc(Br)cc1Cl [DDD85631] | >1 |
| Cc1nn(C)c(C)c1N[S+](=O)([O-])c1ccc(NCCN2CCNCC2)nc1 [DDD86305] | >1 |
